Results as given in ChEMBL document CHEMBL1201862, “PubChem BioAssay data set” (2004).
Where a name gives a salt, the structure may show the parent alone.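 All cell lines were grown in 96-well plates and treated with compound for 48 hours. At the GI50, growth is halved.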 Activity calls are given as the source filed them. Cut-off read from the data, not from the text of the source: active = GI50 up to about 1.1 µM and inactive = higher.

Legend:
Assay in all cases: NCI tumour cell line growth inhibition, 48 h
786-0 = system: 786-0
A549 = system: A549
ACHN = system: ACHN
BT-549 = system: BT-549
CAKI-1 = system: CAKI-1
CCRF-CEM = system: CCRF-CEM
COLO 205 = system: COLO 205
DU-145 = system: DU-145
EKVX = system: EKVX
HCC 2998 = system: HCC 2998
HCT-116 = system: HCT-116
HCT-15 = system: HCT-15
HL-60 = system: HL-60
HOP-92 = system: HOP-92
Hs-578T = system: Hs-578T
IGROV-1 = system: IGROV-1
K562 = system: K562
KM12 = system: KM12
LOX IMVI = system: LOX IMVI
M14 = system: M14
MCF7 = system: MCF7
MDA-MB-231 = system: MDA-MB-231
MDA-MB-435 = system: MDA-MB-435
MDA-N = system: MDA-N
MOLT-4 = system: MOLT-4
Malme-3M = system: Malme-3M
NCI-H226 = system: NCI-H226
NCI-H460 = system: NCI-H460
NCI-H522 = system: NCI-H522
NCI/ADR-RES = system: NCI/ADR-RES
OVCAR-3 = system: OVCAR-3
OVCAR-4 = system: OVCAR-4
OVCAR-5 = system: OVCAR-5
OVCAR-8 = system: OVCAR-8
PC-3 = system: PC-3
RPMI-8226 = system: RPMI-8226
RXF 393 = system: RXF 393
SF-268 = system: SF-268
SF-295 = system: SF-295
SF-539 = system: SF-539
SK-MEL-28 = system: SK-MEL-28
SK-MEL-2 = system: SK-MEL-2
SK-MEL-5 = system: SK-MEL-5
SN12C = system: SN12C
SNB-19 = system: SNB-19
SNB-75 = system: SNB-75
SR = system: SR
SW-620 = system: SW-620
T47D = system: T47D
TK-10 = system: TK-10
U-251 = system: U-251
UACC-257 = system: UACC-257
UACC-62 = system: UACC-62
UO-31 = system: UO-31
HOP-62 = system: HOP-62
HT-29 = system: HT-29
NCI-H23 = system: NCI-H23
SK-OV-3 = system: SK-OV-3

## Cc1ccc2c(c1C)CC1(Cc3ccc(C)c(C)c3C1=O)C2=O (centres undefined)
786-0
  GI50: 39.4 µM (inactive)
A549
  GI50: 35.7 µM (inactive)
ACHN
  GI50: 46 µM (inactive)
BT-549
  GI50: > 100 µM (inactive)
CAKI-1
  GI50: 44.2 µM (inactive)
CCRF-CEM
  GI50: > 100 µM (inactive)
COLO 205
  GI50: > 100 µM (inactive)
DU-145
  GI50: > 100 µM (inactive)
EKVX
  GI50: 44.2 µM (inactive)
HCC 2998
  GI50: > 100 µM (inactive)
HCT-116
  GI50: > 100 µM (inactive)
HCT-15
  GI50: > 100 µM
HL-60
  GI50: 94.6 µM (inactive)
HOP-92
  GI50: 34 µM (inactive)
Hs-578T
  GI50: 91.8 µM (inactive)
IGROV-1
  GI50: 21.7 µM (inactive)
K562
  GI50: > 100 µM (inactive)
KM12
  GI50: > 100 µM (inactive)
LOX IMVI
  GI50: > 100 µM (inactive)
M14
  GI50: > 100 µM (inactive)
MCF7
  GI50: 66.8 µM (inactive)
MDA-MB-231
  GI50: 30.8 µM (inactive)
MDA-MB-435
  GI50: > 100 µM (inactive)
MDA-N
  GI50: > 100 µM (inactive)
MOLT-4
  GI50: > 100 µM (inactive)
Malme-3M
  GI50: > 100 µM (inactive)
NCI-H226
  GI50: 52.1 µM (inactive)
NCI-H460
  GI50: > 100 µM (inactive)
NCI-H522
  GI50: > 100 µM (inactive)
NCI/ADR-RES
  GI50: > 100 µM (inactive)
OVCAR-3
  GI50: > 100 µM (inactive)
OVCAR-4
  GI50: 33.7 µM (inactive)
OVCAR-5
  GI50: > 100 µM (inactive)
OVCAR-8
  GI50: 61.5 µM (inactive)
PC-3
  GI50: > 100 µM (inactive)
RPMI-8226
  GI50: > 100 µM (inactive)
RXF 393
  GI50: 17.1 µM (inactive)
SF-268
  GI50: > 100 µM (inactive)
SF-295
  GI50: 30.3 µM (inactive)
SF-539
  GI50: 28.6 µM (inactive)
SK-MEL-28
  GI50: > 100 µM (inactive)
SK-MEL-2
  GI50: > 100 µM (inactive)
SK-MEL-5
  GI50: 76.9 µM (inactive)
SN12C
  GI50: > 100 µM (inactive)
SNB-19
  GI50: 59.6 µM (inactive)
SNB-75
  GI50: 67.6 µM (inactive)
SR
  GI50: > 100 µM (inactive)
SW-620
  GI50: > 100 µM (inactive)
T47D
  GI50: > 100 µM (inactive)
TK-10
  GI50: 29.7 µM (inactive)
U-251
  GI50: 44 µM (inactive)
UACC-257
  GI50: > 100 µM (inactive)
UACC-62
  GI50: > 100 µM (inactive)
UO-31
  GI50: > 100 µM (inactive)

## O=C(OCCN1CCCCCC1)C(c1ccsc1)C1CCCCC1 (centres undefined) [CETIEDIL CITRATE]
786-0
  GI50: 16.5 µM (inactive)
A549
  GI50: 19.4 µM (inactive)
ACHN
  GI50: 17.1 µM (inactive)
BT-549
  GI50: 15.3 µM (inactive)
CAKI-1
  GI50: 14.5 µM (inactive)
CCRF-CEM
  GI50: 15.7 µM (inactive)
COLO 205
  GI50: 10.5 µM (inactive)
DU-145
  GI50: 16.6 µM (inactive)
EKVX
  GI50: 17.1 µM (inactive)
HCC 2998
  GI50: 15.2 µM (inactive)
HCT-116
  GI50: 14.1 µM (inactive)
HCT-15
  GI50: 14.4 µM
HL-60
  GI50: 24.5 µM (inactive)
HOP-62
  GI50: 15.1 µM (inactive)
HOP-92
  GI50: 13.9 µM (inactive)
HT-29
  GI50: 11.9 µM (inactive)
Hs-578T
  GI50: 20.7 µM (inactive)
IGROV-1
  GI50: 11.1 µM (inactive)
KM12
  GI50: 16.8 µM (inactive)
LOX IMVI
  GI50: 17.1 µM (inactive)
M14
  GI50: 17.3 µM (inactive)
MCF7
  GI50: 16.7 µM (inactive)
MDA-MB-231
  GI50: 16.7 µM (inactive)
MDA-MB-435
  GI50: 16.9 µM (inactive)
MDA-N
  GI50: 14 µM (inactive)
MOLT-4
  GI50: 21.4 µM (inactive)
Malme-3M
  GI50: 14.4 µM (inactive)
NCI-H23
  GI50: 18.5 µM (inactive)
NCI-H460
  GI50: 16.2 µM (inactive)
NCI/ADR-RES
  GI50: 15.7 µM (inactive)
OVCAR-3
  GI50: 15 µM (inactive)
OVCAR-5
  GI50: 17.3 µM (inactive)
OVCAR-8
  GI50: 18.6 µM (inactive)
PC-3
  GI50: 18.4 µM (inactive)
RPMI-8226
  GI50: 13.5 µM (inactive)
SF-268
  GI50: 17.6 µM (inactive)
SF-295
  GI50: 17.9 µM (inactive)
SF-539
  GI50: 16.8 µM (inactive)
SK-MEL-28
  GI50: 20.3 µM (inactive)
SK-OV-3
  GI50: 16.9 µM (inactive)
SN12C
  GI50: 17.9 µM (inactive)
SNB-19
  GI50: 18.7 µM (inactive)
SNB-75
  GI50: 16.1 µM (inactive)
SR
  GI50: 26.6 µM (inactive)
SW-620
  GI50: 16.6 µM (inactive)
T47D
  GI50: 3.28 µM (inactive)
TK-10
  GI50: 16 µM (inactive)
U-251
  GI50: 17.2 µM (inactive)
UACC-257
  GI50: 18.8 µM (inactive)
UO-31
  GI50: 13.3 µM (inactive)
